We go through 6 molecules from US20060183902A1, “Dihydroindolyl methanones as alpha 1a/1d adrenoreceptor modulators for the treatment of benign prostatic hypertrophy and lower urinary tract symptoms” (priority 2005, published 2006).

Read-outs that look alike come from different tables or passages of the source.

The subject of data set [1] is α1a and α1d subtypes over the α1b subtype. The note with it: cited from earlier work.
Data set [2] relates to BPH patients. The note with it: clinical studies; cited from earlier work.
For data set [3], the target named is T1, α1a-AR (Homo sapiens, UniProt P35348).
T1 construct: expressed in transfected cells; host or cells: COS-7
T1 sequence (P35348 1-466): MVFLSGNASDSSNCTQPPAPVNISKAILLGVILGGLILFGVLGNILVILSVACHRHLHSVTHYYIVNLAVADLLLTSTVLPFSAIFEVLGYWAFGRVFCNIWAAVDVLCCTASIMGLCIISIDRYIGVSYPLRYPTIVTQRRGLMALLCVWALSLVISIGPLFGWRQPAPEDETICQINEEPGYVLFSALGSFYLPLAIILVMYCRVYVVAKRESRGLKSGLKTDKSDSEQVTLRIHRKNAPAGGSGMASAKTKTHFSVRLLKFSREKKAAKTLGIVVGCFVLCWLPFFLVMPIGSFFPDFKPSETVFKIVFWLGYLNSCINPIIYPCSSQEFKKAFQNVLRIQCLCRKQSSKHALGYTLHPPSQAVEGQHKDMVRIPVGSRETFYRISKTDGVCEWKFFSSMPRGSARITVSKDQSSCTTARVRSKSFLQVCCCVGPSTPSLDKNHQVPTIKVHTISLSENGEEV
The data set is described as follows: α1-Adrenergic receptor radio-ligand (125I-HEAT) binding assay, α1a subtype. The following applies: COS-7 cell membranes transfected with α1a-AR, 125I-HEAT 50 pM. An outline of the steps:
(§1)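 Membranes from COS-7 cells transfected with a single α1-AR subtype, incubated 1 h at rt with 50 pM 125I-HEAT and compound (1 pM–10 µM, half-log steps, final) in Tris/EDTA/NaCl pH 7.4. Bound radioactivity collected by GF/C filtration and scintillation counting, triplicates; Ki derived.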

The target in data set [4] is T2, α1b-AR (Homo sapiens, UniProt P35368).
T2 construct: expressed in transfected cells; host or cells: COS-7
T2 sequence (P35368 1-520): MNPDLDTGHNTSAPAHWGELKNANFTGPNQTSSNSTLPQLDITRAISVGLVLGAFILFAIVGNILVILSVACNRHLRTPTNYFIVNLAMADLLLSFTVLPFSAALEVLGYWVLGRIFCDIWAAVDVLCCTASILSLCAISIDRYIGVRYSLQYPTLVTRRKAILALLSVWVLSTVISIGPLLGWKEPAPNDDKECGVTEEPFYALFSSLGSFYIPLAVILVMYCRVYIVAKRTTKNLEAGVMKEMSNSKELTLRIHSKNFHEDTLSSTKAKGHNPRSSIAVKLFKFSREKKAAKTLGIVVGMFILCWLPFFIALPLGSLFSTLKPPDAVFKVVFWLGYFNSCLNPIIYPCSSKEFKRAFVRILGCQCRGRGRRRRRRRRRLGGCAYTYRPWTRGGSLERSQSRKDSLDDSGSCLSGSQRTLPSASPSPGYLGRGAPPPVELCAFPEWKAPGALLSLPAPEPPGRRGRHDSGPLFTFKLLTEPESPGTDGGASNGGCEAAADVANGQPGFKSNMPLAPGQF
As to the kind of experiment: α1-Adrenergic receptor radio-ligand (125I-HEAT) binding assay, α1b subtype. The note with it: COS-7 cell membranes transfected with α1b-AR, 125I-HEAT 50 pM. An outline of the steps:
as §1

Data set [5] addresses T3, α1d-AR (Homo sapiens, UniProt P25100).
T3 construct: expressed in transfected cells; host or cells: COS-7
T3 sequence (P25100 1-572): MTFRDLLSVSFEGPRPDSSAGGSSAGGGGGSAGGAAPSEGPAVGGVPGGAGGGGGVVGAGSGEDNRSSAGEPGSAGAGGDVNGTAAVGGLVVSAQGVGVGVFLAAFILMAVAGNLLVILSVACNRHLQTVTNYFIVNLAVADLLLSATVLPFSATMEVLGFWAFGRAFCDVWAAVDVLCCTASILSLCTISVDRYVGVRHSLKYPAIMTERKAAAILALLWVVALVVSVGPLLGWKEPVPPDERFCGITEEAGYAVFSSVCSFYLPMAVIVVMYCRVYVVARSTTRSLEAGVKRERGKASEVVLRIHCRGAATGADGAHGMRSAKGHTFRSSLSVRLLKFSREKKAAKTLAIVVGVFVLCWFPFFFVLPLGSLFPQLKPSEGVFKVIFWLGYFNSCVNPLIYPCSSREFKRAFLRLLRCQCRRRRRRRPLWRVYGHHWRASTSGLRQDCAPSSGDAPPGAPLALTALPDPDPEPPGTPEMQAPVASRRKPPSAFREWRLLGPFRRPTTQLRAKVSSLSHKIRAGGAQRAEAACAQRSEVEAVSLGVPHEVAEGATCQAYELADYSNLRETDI
As to the kind of experiment: α1-Adrenergic receptor radio-ligand (125I-HEAT) binding assay, α1d subtype. The note with it: COS-7 cell membranes transfected with α1d-AR, 125I-HEAT 50 pM. An outline of the steps: as §1

Data set [6] concerns normal rats and rats with bladder hypertrophy secondary to outlet obstruction. The note with it: intrathecally administered; cited from earlier work.
[7] abbreviates: read-out: Receptor Binding, Ki α1a-AR.
Where [8] appears, read: read-out: Receptor Binding, Ki α1b-AR.
Setting [9] is: read-out: Receptor Binding, Ki α1d-AR.

For orientation: Ki means the equilibrium dissociation constant of an inhibitor or competing ligand from its target. As a reminder, the melting point is the temperature of the solid-liquid transition.

On to `CCOc1ccccc1OCCN[C@H](C)Cc1ccc(OC)c(S(N)(=O)=O)c1` [Tamsulosin], for which the “selective for the α1a and α1d subtypes over the α1b subtype” value in data set [1] is “about 15 fold”. Further, in data set [2], the “effect on obstructive and irritative symptoms of BPH” value is “improvement in both obstructive and irritative symptoms”.

`CC(C)Oc1ccccc1N1CCN(Cc2cccc(C(=O)N3CCc4ccc(NS(=O)(=O)c5cccc6c(N(C)C)cccc56)cc43)c2)CC1` [Cpd 32, 5-dimethylamino-naphthalene-1-sulfonic acid (1-{3-[4-(2-isopropoxy-phenyl)-piperazin-1-ylmethyl]-benzoyl}-2,3-dihydro-1H-indol-6-yl)-amide] showed a melting point of 137 to 139 °C. Moreover, the Ki in data set [3] (setting [7]) worked out at 2.7 nM. Moreover, the inhibitory constant (Ki) in data set [4] (setting [8]) is 610 nM. In addition, the Ki in data set [5] (setting [9]) amounted to 9.4 nM.

For `Cc1ccc(OC(=O)Nc2ccc3c(c2)CCN3C(=O)c2cccc(CN3CCN(c4ccccc4OC(C)C)CC3)c2)cc1` [Cpd 4, (1-{3-[4-(2-isopropoxy-phenyl)-piperazin-1-ylmethyl]-benzoyl}2,3-dihydro-1H-indol-5-yl)-carbamic acid p-tolyl ester], the melting point lay within 166 to 168 °C. Besides, affinity in data set [3] (Receptor Binding, Ki α1a-AR) was put at a Ki of 2.4 nM. In data set [4] (Receptor Binding, Ki α1b-AR), this molecule registered a Ki of 96 nM. In data set [5] (Receptor Binding, Ki α1d-AR), the Ki came to 20 nM.

`COc1cccc(OC)c1C(=O)Nc1ccc2c(c1)CCN2C(=O)c1cccc(CN2CCN(c3ccccc3OC(C)C)CC2)c1` [Cpd 26, N-(1-{3-[4-(2-isopropoxy-phenyl)-piperazin-1-ylmethyl]-benzoyl}-2,3-dihydro-1H-indol-5-yl)-2,6-dimethoxy-benzamide] displayed a melting point of 229 to 232 °C. The Ki in data set [3] (setting [7]) was 34 nM. For the same molecule, the Ki in data set [4] (setting [8]) came to 200 nM. In addition, in data set [5] (setting [9]), the Ki was found to be 2 nM.

For the molecule `CC(C)Oc1ccccc1N1CCN(Cc2cccc(C(=O)N3CCc4cc(NCc5c(F)cccc5F)ccc43)c2)CC1` [Cpd 9, [5-(2,6-difluoro-benzylamino)-2,3-dihydro-indol-1-yl]-{3-[4-(2-isopropoxy-phenyl)-piperazin-1-ylmethyl]-phenyl}-methanone], the melting point was in the range of 127 to 130 °C. Moreover, in data set [3] (setting [7]), the Ki amounted to 26 nM. Moreover, the Ki in data set [4] (setting [8]) came to 2050 nM. Further, the Ki in data set [5] (setting [9]) came out at 17 nM.

Consider `COc1cc2nc(N3CCN(C(=O)C4COc5ccccc5O4)CC3)nc(N)c2cc1OC` (stereo not shown) [doxazosin], for which, in data set [6], the micturition pressure entry is listed as “decrease in micturition pressure”.
